According to ChEMBL document CHEMBL4813981, “Synthesis and in vitro antibacterial activity of new aminothiazole-oximepiperidone cephalosporins” (2021):
Converted amounts (≈) assume the structure as drawn.

Assays:
Type in all cases: functional
[1] = tested on: Klebsiella pneumoniae; assay: Antibacterial activity against Klebsiella pneumoniae ATCC BAA-1705 assessed as reduction in bacterial growth
[2] = tested on: Acinetobacter baumannii; assay: Antibacterial activity against Carbapenem- resistant Acinetobacter baumannii 17-3 assessed as reduction in bacterial growth
[3] = tested on: Acinetobacter baumannii; assay: Antibacterial activity against Carbapenem- resistant Acinetobacter baumannii 17-5 assessed as reduction in bacterial growth
[4] = tested on: Klebsiella pneumoniae; assay: Antibacterial activity against Carbapenem- resistant Klebsiella pneumoniae KR 15-4 assessed as reduction in bacterial growth
[5] = tested on: Klebsiella pneumoniae; assay: Antibacterial activity against Carbapenem- resistant Klebsiella pneumoniae KR 15-9 assessed as reduction in bacterial growth
[6] = tested on: Klebsiella pneumoniae; assay: Antibacterial activity against Carbapenem- resistant Klebsiella pneumoniae KR 15-12 assessed as reduction in bacterial growth
[7] = tested on: Klebsiella pneumoniae; assay: Antibacterial activity against Carbapenem- sensitive Klebsiella pneumoniae 17-1 overexpressing extended spectrum beta-lactamases assessed as reduction in bacterial growth
[8] = tested on: Klebsiella pneumoniae; assay: Antibacterial activity against Carbapenem- sensitive Klebsiella pneumoniae 17-5 overexpressing extended spectrum beta-lactamases assessed as reduction in bacterial growth
[9] = tested on: Klebsiella pneumoniae; assay: Antibacterial activity against Carbapenem- sensitive Klebsiella pneumoniae 17-6 overexpressing extended spectrum beta-lactamases assessed as reduction in bacterial growth
[10] = tested on: Klebsiella pneumoniae; assay: Antibacterial activity against Carbapenem- sensitive Klebsiella pneumoniae 17-9 overexpressing extended spectrum beta-lactamases assessed as reduction in bacterial growth
[11] = tested on: Klebsiella pneumoniae; assay: Antibacterial activity against Carbapenem- sensitive Klebsiella pneumoniae 17-10 overexpressing extended spectrum beta-lactamases assessed as reduction in bacterial growth
[12] = tested on: Klebsiella pneumoniae; assay: Antibacterial activity against Carbapenem- sensitive Klebsiella pneumoniae 17-12 overexpressing extended spectrum beta-lactamases assessed as reduction in bacterial growth
[13] = tested on: Klebsiella pneumoniae; assay: Antibacterial activity against Carbapenem- sensitive Klebsiella pneumoniae 17-13 overexpressing extended spectrum beta-lactamases assessed as reduction in bacterial growth
[14] = tested on: Klebsiella pneumoniae; assay: Antibacterial activity against Carbapenem- sensitive Klebsiella pneumoniae 17-14 overexpressing extended spectrum beta-lactamases assessed as reduction in bacterial growth
[15] = tested on: Klebsiella pneumoniae; assay: Antibacterial activity against Carbapenem- sensitive Klebsiella pneumoniae 17-15 overexpressing extended spectrum beta-lactamases assessed as reduction in bacterial growth
[16] = tested on: Klebsiella pneumoniae; assay: Antibacterial activity against ESBLs negative Carbapenem-sensitive Klebsiella pneumoniae 17-16 assessed as reduction in bacterial growth
[17] = tested on: Klebsiella pneumoniae; assay: Antibacterial activity against ESBLs negative Carbapenem-sensitive Klebsiella pneumoniae 17-20 assessed as reduction in bacterial growth
[18] = tested on: Escherichia coli; assay: Antibacterial activity against ESBLs positive Carbapenem-sensitive Escherichia coli 17-3 assessed as reduction in bacterial growth
[19] = tested on: Escherichia coli; assay: Antibacterial activity against ESBLs positive Carbapenem-sensitive Escherichia coli 17-5 assessed as reduction in bacterial growth
[20] = tested on: Escherichia coli; assay: Antibacterial activity against ESBLs positive Carbapenem-sensitive Escherichia coli 17-10 assessed as reduction in bacterial growth
[21] = tested on: Escherichia coli; assay: Antibacterial activity against ESBLs positive Carbapenem-sensitive Escherichia coli 17-11 assessed as reduction in bacterial growth
[22] = tested on: Escherichia coli; assay: Antibacterial activity against ESBLs positive Carbapenem-sensitive Escherichia coli 17-15 assessed as reduction in bacterial growth
[23] = tested on: Escherichia coli; assay: Antibacterial activity against ESBLs positive Carbapenem-sensitive Escherichia coli 17-17 assessed as reduction in bacterial growth
[24] = tested on: Escherichia coli; assay: Antibacterial activity against ESBLs negative Carbapenem-sensitive Escherichia coli 17-9 assessed as reduction in bacterial growth
[25] = tested on: Enterobacter cloacae; assay: Antibacterial activity against Enterobacter cloacae 17-3 assessed as reduction in bacterial growth
[26] = tested on: Enterobacter cloacae; assay: Antibacterial activity against Enterobacter cloacae 17-4 assessed as reduction in bacterial growth
[27] = tested on: Enterobacter cloacae; assay: Antibacterial activity against Enterobacter cloacae 17-5 assessed as reduction in bacterial growth
[28] = tested on: Enterobacter cloacae; assay: Antibacterial activity against Enterobacter cloacae 17-8 assessed as reduction in bacterial growth
[29] = tested on: Enterobacter cloacae; assay: Antibacterial activity against Enterobacter cloacae 17-9 assessed as reduction in bacterial growth
[30] = tested on: Enterobacter cloacae; assay: Antibacterial activity against Enterobacter cloacae 17-10 assessed as reduction in bacterial growth
[31] = tested on: Klebsiella aerogenes; assay: Antibacterial activity against Enterobacter aerogenes 17-3 assessed as reduction in bacterial growth
[32] = tested on: Klebsiella aerogenes; assay: Antibacterial activity against Enterobacter aerogenes 17-4 assessed as reduction in bacterial growth
[33] = tested on: Klebsiella aerogenes; assay: Antibacterial activity against Enterobacter aerogenes 15-4 assessed as reduction in bacterial growth
[34] = tested on: Pseudomonas aeruginosa; assay: Antibacterial activity against Carbapenem- sensitive Pseudomonas aeruginosa 17-7 assessed as reduction in bacterial growth
[35] = tested on: Pseudomonas aeruginosa; assay: Antibacterial activity against Carbapenem- sensitive Pseudomonas aeruginosa 17-9 assessed as reduction in bacterial growth
[36] = tested on: Pseudomonas aeruginosa; assay: Antibacterial activity against Carbapenem- sensitive Pseudomonas aeruginosa 17-10 assessed as reduction in bacterial growth
[37] = tested on: Pseudomonas aeruginosa; assay: Antibacterial activity against Carbapenem- sensitive Pseudomonas aeruginosa 17-21 assessed as reduction in bacterial growth
[38] = tested on: Pseudomonas aeruginosa; assay: Antibacterial activity against Carbapenem- sensitive Pseudomonas aeruginosa 17-29 assessed as reduction in bacterial growth
[39] = tested on: Pseudomonas aeruginosa; assay: Antibacterial activity against Carbapenem- sensitive Pseudomonas aeruginosa 17-30 assessed as reduction in bacterial growth

Question: Which MIC [1] does the source give for C[C@@H](O)[C@H]1C(=O)N2C(C(=O)O)=C(S[C@@H]3CN[C@H](C(=O)N(C)C)C3)[C@H](C)[C@H]12 [MEROPENEM] here?
Answer: Its MIC is 32 µg/mL (≈ 83.4 µM).

Question: And the MIC [2]?
Answer: The MIC was 16 µg/mL (≈ 41.7 µM).

Question: What about the MIC [3] of the same molecule?
Answer: The MIC was 64 µg/mL (≈ 167 µM).

Question: And the MIC [4]?
Answer: The MIC was > 64 µg/mL.

Question: And the MIC [5]?
Answer: Its MIC is > 64 µg/mL.

Question: What about the MIC [6] of the same molecule?
Answer: The MIC was 32 µg/mL (≈ 83.4 µM).

Question: And the MIC [7]?
Answer: Its MIC is 0.06 µg/mL (≈ 0.156 µM).

Question: What about the MIC [8] of the same molecule?
Answer: Its MIC is < 0.03 µg/mL.

Question: And the MIC [9]?
Answer: Its MIC is < 0.03 µg/mL.

Question: And the MIC [10]?
Answer: Its MIC is 0.06 µg/mL (≈ 0.156 µM).

Question: And the MIC [11]?
Answer: The MIC was < 0.03 µg/mL.

Question: And the MIC [12]?
Answer: Its MIC is < 0.03 µg/mL.

Question: What about the MIC [13] of the same molecule?
Answer: The MIC was < 0.03 µg/mL.

Question: What about the MIC [14] of the same molecule?
Answer: Its MIC is 1 µg/mL (≈ 2.61 µM).

Question: What about the MIC [15] of the same molecule?
Answer: The MIC was < 0.03 µg/mL.

Question: What about the MIC [16] of the same molecule?
Answer: Its MIC is < 0.03 µg/mL.

Question: What about the MIC [17] of the same molecule?
Answer: Its MIC is < 0.03 µg/mL.

Question: And the MIC [18]?
Answer: Its MIC is < 0.03 µg/mL.

Question: What about the MIC [19] of the same molecule?
Answer: The MIC was < 0.03 µg/mL.

Question: What about the MIC [20] of the same molecule?
Answer: The MIC was < 0.03 µg/mL.

Question: And the MIC [21]?
Answer: The MIC was < 0.03 µg/mL.

Question: What about the MIC [22] of the same molecule?
Answer: The MIC was < 0.03 µg/mL.

Question: What about the MIC [23] of the same molecule?
Answer: Its MIC is < 0.03 µg/mL.

Question: And the MIC [24]?
Answer: Its MIC is < 0.03 µg/mL.

Question: What about the MIC [25] of the same molecule?
Answer: Its MIC is 0.06 µg/mL (≈ 0.156 µM).

Question: And the MIC [26]?
Answer: The MIC was < 0.03 µg/mL.

Question: What about the MIC [27] of the same molecule?
Answer: The MIC was 0.06 µg/mL (≈ 0.156 µM).

Question: What about the MIC [28] of the same molecule?
Answer: Its MIC is < 0.03 µg/mL.

Question: And the MIC [29]?
Answer: Its MIC is < 0.03 µg/mL.

Question: What about the MIC [30] of the same molecule?
Answer: The MIC was < 0.03 µg/mL.

Question: What about the MIC [31] of the same molecule?
Answer: The MIC was < 0.03 µg/mL.

Question: And the MIC [32]?
Answer: The MIC was 0.125 µg/mL (≈ 0.326 µM).

Question: And the MIC [33]?
Answer: Its MIC is < 0.03 µg/mL.

Question: And the MIC [34]?
Answer: The MIC was 0.06 µg/mL (≈ 0.156 µM).

Question: And the MIC [35]?
Answer: The MIC was 0.25 µg/mL (≈ 0.652 µM).

Question: What about the MIC [36] of the same molecule?
Answer: Its MIC is 0.25 µg/mL (≈ 0.652 µM).

Question: And the MIC [37]?
Answer: Its MIC is 2 µg/mL (≈ 5.22 µM).

Question: What about the MIC [38] of the same molecule?
Answer: The MIC was 1 µg/mL (≈ 2.61 µM).

Question: And the MIC [39]?
Answer: The MIC was 2 µg/mL (≈ 5.22 µM).
